CC(C)NC(=O)COc1cccc(-c2nc(Nc3ccc4[nH]ncc4c3)c3ccccc3n2)c1 [Belumosudil, 2-{3-[4-(1H-indazol-5-ylamino)-2-quinazolinyl]phenoxy}-N-(propan-2-yl) acetamide]
Patients with relative dose intensity >95% (Cohort 1): 77%
Abdominal distension: # Events (Cohort 1 200 mg QD): 1
Abdominal distension: Affected/At Risk (Cohort 1 200 mg QD): 1/17
Abdominal distension: Affected/At Risk (%) (Cohort 1 200 mg QD): (5.88%)
Abdominal pain upper: # Events (Cohort 1 200 mg QD): 1
Abdominal pain upper: Affected/At Risk (Cohort 1 200 mg QD): 1/17
Abdominal pain upper: Affected/At Risk (%) (Cohort 1 200 mg QD): (5.88%)
Abdominal pain: # Events (Cohort 1 200 mg QD): 2
Abdominal pain: Affected/At Risk (Cohort 1 200 mg QD): 2/17
Abdominal pain: Affected/At Risk (%) (Cohort 1 200 mg QD): (11.76%)
Actinic keratosis: # Events (Cohort 1 200 mg QD): 0
Actinic keratosis: Affected/At Risk (Cohort 1 200 mg QD): 0/17
Actinic keratosis: Affected/At Risk (%) (Cohort 1 200 mg QD): (0%)
Acute kidney injury: # Events (Cohort 1 200 mg QD): 4
Acute kidney injury: Affected/At Risk (Cohort 1 200 mg QD): 1/17
Acute kidney injury: Affected/At Risk (%) (Cohort 1 200 mg QD): (5.88%)
Acute respiratory distress syndrome: # Events (Cohort 1 200 mg QD): 1
Acute respiratory distress syndrome: Affected/At Risk (Cohort 1 200 mg QD): 1/17
Acute respiratory distress syndrome: Affected/At Risk (%) (Cohort 1 200 mg QD): (5.88%)
Adrenal insufficiency: # Events (Cohort 1 200 mg QD): 2
Adrenal insufficiency: Affected/At Risk (Cohort 1 200 mg QD): 1/17
Adrenal insufficiency: Affected/At Risk (%) (Cohort 1 200 mg QD): (5.88%)
Alanine aminotransferase increased: # Events (Cohort 1 200 mg QD): 12
Alanine aminotransferase increased: Affected/At Risk (Cohort 1 200 mg QD): 6/17
Alanine aminotransferase increased: Affected/At Risk (%) (Cohort 1 200 mg QD): (35.29%)
Anaemia: # Events (Cohort 1 200 mg QD): 14
Anaemia: Affected/At Risk (Cohort 1 200 mg QD): 5/17
Anaemia: Affected/At Risk (%) (Cohort 1 200 mg QD): (29.41%)
Anal incontinence: # Events (Cohort 1 200 mg QD): 2
Anal incontinence: Affected/At Risk (Cohort 1 200 mg QD): 1/17
Anal incontinence: Affected/At Risk (%) (Cohort 1 200 mg QD): (5.88%)
Anxiety: # Events (Cohort 1 200 mg QD): 1
Anxiety: Affected/At Risk (Cohort 1 200 mg QD): 1/17
Anxiety: Affected/At Risk (%) (Cohort 1 200 mg QD): (5.88%)
Arthralgia: # Events (Cohort 1 200 mg QD): 1
Arthralgia: Affected/At Risk (Cohort 1 200 mg QD): 1/17
Arthralgia: Affected/At Risk (%) (Cohort 1 200 mg QD): (5.88%)
Aspartate aminotransferase increased: # Events (Cohort 1 200 mg QD): 8
Aspartate aminotransferase increased: Affected/At Risk (Cohort 1 200 mg QD): 5/17
Aspartate aminotransferase increased: Affected/At Risk (%) (Cohort 1 200 mg QD): (29.41%)
Asthenia: # Events (Cohort 1 200 mg QD): 0
Asthenia: Affected/At Risk (Cohort 1 200 mg QD): 0/17
Asthenia: Affected/At Risk (%) (Cohort 1 200 mg QD): (0%)
Atelectasis: # Events (Cohort 1 200 mg QD): 1
Atelectasis: Affected/At Risk (Cohort 1 200 mg QD): 1/17
Atelectasis: Affected/At Risk (%) (Cohort 1 200 mg QD): (5.88%)
Back pain: # Events (Cohort 1 200 mg QD): 0
Back pain: Affected/At Risk (Cohort 1 200 mg QD): 0/17
Back pain: Affected/At Risk (%) (Cohort 1 200 mg QD): (0%)
Balance disorder: # Events (Cohort 1 200 mg QD): 0
Balance disorder: Affected/At Risk (Cohort 1 200 mg QD): 0/17
Balance disorder: Affected/At Risk (%) (Cohort 1 200 mg QD): (0%)
Basal cell carcinoma: # Events (Cohort 1 200 mg QD): 0
Basal cell carcinoma: Affected/At Risk (Cohort 1 200 mg QD): 0/17
Basal cell carcinoma: Affected/At Risk (%) (Cohort 1 200 mg QD): (0%)
Benign prostatic hyperplasia: # Events (Cohort 1 200 mg QD): 1
Benign prostatic hyperplasia: Affected/At Risk (Cohort 1 200 mg QD): 1/17
Benign prostatic hyperplasia: Affected/At Risk (%) (Cohort 1 200 mg QD): (5.88%)
Blepharitis: # Events (Cohort 1 200 mg QD): 1
Blepharitis: Affected/At Risk (Cohort 1 200 mg QD): 1/17
Blepharitis: Affected/At Risk (%) (Cohort 1 200 mg QD): (5.88%)
Blister: # Events (Cohort 1 200 mg QD): 0
Blister: Affected/At Risk (Cohort 1 200 mg QD): 0/17
Blister: Affected/At Risk (%) (Cohort 1 200 mg QD): (0%)
Blood alkaline phosphatase increased: # Events (Cohort 1 200 mg QD): 6
Blood alkaline phosphatase increased: Affected/At Risk (Cohort 1 200 mg QD): 4/17
Blood alkaline phosphatase increased: Affected/At Risk (%) (Cohort 1 200 mg QD): (23.53%)
Blood chloride decreased: # Events (Cohort 1 200 mg QD): 0
Blood chloride decreased: Affected/At Risk (Cohort 1 200 mg QD): 0/17
Blood chloride decreased: Affected/At Risk (%) (Cohort 1 200 mg QD): (0%)
Blood cholesterol increased: # Events (Cohort 1 200 mg QD): 2
Blood cholesterol increased: Affected/At Risk (Cohort 1 200 mg QD): 1/17
Blood cholesterol increased: Affected/At Risk (%) (Cohort 1 200 mg QD): (5.88%)
Blood creatine increased: # Events (Cohort 1 200 mg QD): 0
Blood creatine increased: Affected/At Risk (Cohort 1 200 mg QD): 0/17
Blood creatine increased: Affected/At Risk (%) (Cohort 1 200 mg QD): (0%)
Blood creatine phosphokinase increased: # Events (Cohort 1 200 mg QD): 1
Blood creatine phosphokinase increased: Affected/At Risk (Cohort 1 200 mg QD): 1/17
Blood creatine phosphokinase increased: Affected/At Risk (%) (Cohort 1 200 mg QD): (5.88%)
Blood creatinine increased: # Events (Cohort 1 200 mg QD): 1
Blood creatinine increased: Affected/At Risk (Cohort 1 200 mg QD): 1/17
Blood creatinine increased: Affected/At Risk (%) (Cohort 1 200 mg QD): (5.88%)
Blood loss anaemia: # Events (Cohort 1 200 mg QD): 1
Blood loss anaemia: Affected/At Risk (Cohort 1 200 mg QD): 1/17
Blood loss anaemia: Affected/At Risk (%) (Cohort 1 200 mg QD): (5.88%)
Bronchial secretion retention: # Events (Cohort 1 200 mg QD): 0
Bronchial secretion retention: Affected/At Risk (Cohort 1 200 mg QD): 0/17
Bronchial secretion retention: Affected/At Risk (%) (Cohort 1 200 mg QD): (0%)
Bronchitis: # Events (Cohort 1 200 mg QD): 1
Bronchitis: Affected/At Risk (Cohort 1 200 mg QD): 1/17
Bronchitis: Affected/At Risk (%) (Cohort 1 200 mg QD): (5.88%)
Bronchoscopy: # Events (Cohort 1 200 mg QD): 1
Bronchoscopy: Affected/At Risk (Cohort 1 200 mg QD): 1/17
Bronchoscopy: Affected/At Risk (%) (Cohort 1 200 mg QD): (5.88%)
Catheter site haemorrhage: # Events (Cohort 1 200 mg QD): 1
Catheter site haemorrhage: Affected/At Risk (Cohort 1 200 mg QD): 1/17
Catheter site haemorrhage: Affected/At Risk (%) (Cohort 1 200 mg QD): (5.88%)
Chills: # Events (Cohort 1 200 mg QD): 1
Chills: Affected/At Risk (Cohort 1 200 mg QD): 1/17
Chills: Affected/At Risk (%) (Cohort 1 200 mg QD): (5.88%)
Chronic kidney disease: # Events (Cohort 1 200 mg QD): 1
Chronic kidney disease: Affected/At Risk (Cohort 1 200 mg QD): 1/17
Chronic kidney disease: Affected/At Risk (%) (Cohort 1 200 mg QD): (5.88%)
Conjunctival haemorrhage: # Events (Cohort 1 200 mg QD): 0
Conjunctival haemorrhage: Affected/At Risk (Cohort 1 200 mg QD): 0/17
Conjunctival haemorrhage: Affected/At Risk (%) (Cohort 1 200 mg QD): (0%)
Conjunctivitis: # Events (Cohort 1 200 mg QD): 0
Conjunctivitis: Affected/At Risk (Cohort 1 200 mg QD): 0/17
Conjunctivitis: Affected/At Risk (%) (Cohort 1 200 mg QD): (0%)
Constipation: # Events (Cohort 1 200 mg QD): 1
Constipation: Affected/At Risk (Cohort 1 200 mg QD): 1/17
Constipation: Affected/At Risk (%) (Cohort 1 200 mg QD): (5.88%)
Contrast media allergy: # Events (Cohort 1 200 mg QD): 0
Contrast media allergy: Affected/At Risk (Cohort 1 200 mg QD): 0/17
Contrast media allergy: Affected/At Risk (%) (Cohort 1 200 mg QD): (0%)
Contusion: # Events (Cohort 1 200 mg QD): 2
Contusion: Affected/At Risk (Cohort 1 200 mg QD): 2/17
Contusion: Affected/At Risk (%) (Cohort 1 200 mg QD): (11.76%)
Corneal abrasion: # Events (Cohort 1 200 mg QD): 1
Corneal abrasion: Affected/At Risk (Cohort 1 200 mg QD): 1/17
Corneal abrasion: Affected/At Risk (%) (Cohort 1 200 mg QD): (5.88%)
Corneal infection: # Events (Cohort 1 200 mg QD): 0
Corneal infection: Affected/At Risk (Cohort 1 200 mg QD): 0/17
Corneal infection: Affected/At Risk (%) (Cohort 1 200 mg QD): (0%)
Cough: # Events (Cohort 1 200 mg QD): 1
Cough: Affected/At Risk (Cohort 1 200 mg QD): 1/17
Cough: Affected/At Risk (%) (Cohort 1 200 mg QD): (5.88%)
Decreased appetite: # Events (Cohort 1 200 mg QD): 4
Decreased appetite: Affected/At Risk (Cohort 1 200 mg QD): 2/17
Decreased appetite: Affected/At Risk (%) (Cohort 1 200 mg QD): (11.76%)
Dehydration: # Events (Cohort 1 200 mg QD): 2
Dehydration: Affected/At Risk (Cohort 1 200 mg QD): 2/17
Dehydration: Affected/At Risk (%) (Cohort 1 200 mg QD): (11.76%)
Depression: # Events (Cohort 1 200 mg QD): 0
Depression: Affected/At Risk (Cohort 1 200 mg QD): 0/17
Depression: Affected/At Risk (%) (Cohort 1 200 mg QD): (0%)
Diarrhoea: # Events (Cohort 1 200 mg QD): 9

Reference: patent US20250255867A1 (Kadmon Corporation, LLC, priority 2022, published 2025)
